Data as given in paper PMC9231089, “Sorafenib Chemosensitization by Caryophyllane Sesquiterpenes in Liver, Biliary, and Pancreatic Cancer Cells: The Role of STAT3/ABC Transporter Axis” (Pharmaceutics, 2022).
Counter-ions that a name gives are not always drawn.

What was measured:
Mz-ChA-1 [1] = assay: Combination assay with sorafenib (MTT), Mz-ChA-1; format: cell-based, human;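 on increase of sorafenib cytotoxicity in combination: percent increase of sorafenib cell viability inhibition versus sorafenib alone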
Experimental: (§1) Suitable vehicle controls were also included.
(§2) The type of interaction (synergistic, additive, or antagonistic) among sorafenib and test substances or positive controls was evaluated by measuring the reversal ratio value (RR), combination index (CI), and isobolographic analysis (IB), as previously described.

HepG2 [2] = assay: Combination assay with sorafenib (MTT), HepG2; format: cell-based, human; conditions: for increase of sorafenib cytotoxicity in combination: verapamil/MK571 1 µg/mL or sesquiterpenes 10 µg/mL;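 on increase of sorafenib cytotoxicity in combination: percent increase of sorafenib cell viability inhibition versus sorafenib alone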
Experimental: as §1, §2

HepG2 [3] = assay: MTT cytotoxicity assay, substances alone, HepG2; format: cell-based, human
Experimental: as §1
(§3) The effect of the treatments on cell viability was measured by the MTT assay as previously described. A higher than 30% reduction of cell viability was considered as a significant cytotoxic effect.

[4] = system: noncancerous H69 cholangiocytes; assay: MTT cytotoxicity assay (tolerability), substances alone, H69; format: cell-based, human; conditions: for higher cytotoxicity in normal H69 cells than in cancerous Mz-ChA-1 cholangiocytes (IC50 comparison): H69 vs Mz-ChA-1; for CC50: Homo sapiens, H69 noncancerous cholangiocytes, substance alone, 4 h exposure + 72 h recovery, read-out: IC50 (CL)
Experimental: as §1, §3

phospho(Tyr705)-STAT3 = assay: Western blotting of STAT3 phosphorylation in Bx-PC3 cells; format: cell-based, human; conditions: for increase of STAT3 phosphorylation at tyrosine 705: substance alone, sorafenib and sesquiterpenes 10 μg/mL, verapamil/MK571 1 μg/mL, normalized to total STAT3
Experimental: as §1
Confluent cells were seeded in 6-well plates (5 × 10^5 cells/well), treated as described above, then harvested by centrifugation and washed in PBS. After lysis with a suitable buffer, the Western blotting analysis was carried out, according to previously published methods. […] The levels of phospho(Tyr705)-STAT3 were normalized against total STAT3 ones.

Mz-ChA-1 [5] = assay: MTT cytotoxicity assay, substances alone, Mz-ChA-1; format: cell-based, human; conditions: for IC50: Homo sapiens, substance alone, 4 h exposure + 72 h recovery
Experimental: as §1, §3

Bx-PC3 [6] = assay: MTT cytotoxicity assay, substances alone, Bx-PC3; format: cell-based, human; conditions: for IC50: Homo sapiens, BXPC-3, substance alone, 4 h exposure + 72 h recovery
Experimental: as §1, §3

[7] = system: noncancerous H69 cholangiocytes; assay: Combination assay with sorafenib (MTT), tolerability in H69; format: cell-based, human; conditions: combination with 1 µg/mL and 10 µg/mL sorafenib, verapamil/MK571 1 µg/mL
Experimental: as §1, §2

MRP2 [8] = assay: Immunofluorescence analysis in Bx-PC3 cells, MRP2; format: cell-based, human; conditions: substance alone
Experimental: as §1
(§4) The analysis was performed according to previously published methods. Confluent cells were seeded in 24-well plates (2 × 10^4 cells/well), allowed to adhere overnight, then treated as described above. After treatment, cells were fixed in pure methanol and washed with 4% bovine serum albumin (BSA) and PBS + Tween 20 (PBS-T) for 1 h. […] The expression and localization of Pgp, MRP1, and MRP2 pumps into cells were analyzed by using a Cytation 1 Cell Imaging Multimode Reader (Biotech, USA).

Bx-PC3 [9] = assay: Combination assay with sorafenib (MTT), Bx-PC3; format: cell-based, human;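 on increase of sorafenib cytotoxicity in combination: percent increase of sorafenib cell viability inhibition versus sorafenib alone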
Experimental: as §1, §2

Bx-PC3 cells = assay: Wound healing assay (cell migration); format: cell-based, human
Experimental: To evaluate the effect of caryophyllane sesquiterpenes, both alone and in combination with sorafenib, on the cell migration rate, the wound healing assay was performed. Bx-PC3 cells were seeded in 24-well plate at a density of 2.5 × 10^5 cells/well. After 24 h, the wound was created by scratching the well bottom with a 100 μL pipette tip, then the cells were treated under the scheduled conditions and images were captured at 0, 4, and 72 h using a Cytation 1 Cell Imaging Multi-Mode Reader. […] Results were expressed as wound area percentage with respect to that of the same well at zero time. The positive controls were also included.

MRP1 [10] = assay: Immunofluorescence analysis in Bx-PC3 cells, MRP1; format: cell-based, human; conditions: substance alone, 10 µg/mL
Experimental: as §1, §4

MDR1 = assay: RT-qPCR gene expression in Bx-PC3 cells, MDR1; conditions: substance alone, 4 h exposure + 72 h recovery
Experimental: (§5) Confluent cells were treated with the test substances, both alone or in combination with the anticancer drug, for 4 h, then washed and incubated for a further 72 h (Figure 1), according to previously published protocols [20]. […] Suitable vehicle controls were also included.
(§6) The results of mRNA abundance for the targeted genes in each sample were normalized on the basis of GAPDH (Bio-Rad, Hercules, CA, USA) mRNA. Data are expressed as 2^−ΔCt, calculated using the CFX Manager software (Bio-Rad).

MRP2 [11] = assay: RT-qPCR gene expression in Bx-PC3 cells, MRP2; conditions: substance alone
Experimental: as §5, §6

Pgp = assay: Immunofluorescence analysis in Bx-PC3 cells, Pgp; format: cell-based, human; conditions: substance alone, sorafenib and sesquiterpenes 10 µg/mL, verapamil 1 µg/mL
Experimental: as §1, §4

MRP1 [12] = assay: RT-qPCR gene expression in Bx-PC3 cells, MRP1; format: cell-based, human; conditions: substance alone
Text: as §1

CN(C)C(=O)CCSC(SCCC(=O)O)c1cccc(/C=C/c2ccc3ccc(Cl)cc3n2)c1 (stereo not drawn) [MK571, reference compound]
reduction of sorafenib IC50 in the presence of the substance (Mz-ChA-1 [1]): 1.7 fold | increase of sorafenib cytotoxicity in combination (Mz-ChA-1 [1]; sorafenib 1 µg/mL, verapamil/MK571 1 µg/mL): 3% | increase of sorafenib cytotoxicity in combination (Mz-ChA-1 [1]; sorafenib 10 µg/mL, verapamil/MK571 1 µg/mL or sesquiterpenes 10 µg/mL): 20% | reduction of sorafenib IC50 in the presence of the substance (HepG2 [2]): ~6 fold | increase of sorafenib cytotoxicity in combination (HepG2 [2]; sorafenib 1 µg/mL): ~23% | increase of sorafenib cytotoxicity in combination (HepG2 [2]; sorafenib 10 µg/mL): ~40% | IC50 higher than that of sorafenib (HepG2 [3]; HepG2): comparable | inhibition of cell viability (HepG2 [3]; HepG2, 50 µg/mL): 50% | higher cytotoxicity in normal H69 cells than in cancerous Mz-ChA-1 cholangiocytes (IC50 comparison) [4]: ~2.9 fold | CC50 [4]: 32.6 µg/mL | increase of STAT3 phosphorylation at tyrosine 705 (phospho(Tyr705)-STAT3): 1.5 fold | reduction of phospho(Tyr705)-STAT3 with respect to sorafenib (phospho(Tyr705)-STAT3; substance in combination with sorafenib 10 μg/mL): 3.7 fold | IC50 (Mz-ChA-1 [5]; Mz-ChA-1): 94.6 µg/mL | IC50 higher than that of sorafenib (Mz-ChA-1 [5]; Mz-ChA-1): 1.2 fold | inhibition of cell viability (Mz-ChA-1 [5]; Mz-ChA-1, 50 µg/mL): approximately 15% | inhibition of cell viability (Mz-ChA-1 [5]; Mz-ChA-1, 250 µg/mL): ~90% | IC50 higher than that of sorafenib (Bx-PC3 [6]): 2.5 fold | inhibition of cell viability (Bx-PC3 [6]; 50 µg/mL): ~33% | inhibition of cell viability (Bx-PC3 [6]; 250 µg/mL): ~90% | IC50 (Bx-PC3 [6]): 78.5 µg/mL | reduction of cell viability with respect to sorafenib alone [7]: ~15% | effect on MRP2 transporter expression (immunofluorescence) (MRP2 [8]): significantly lowered | reduction of sorafenib IC50 in the presence of the substance (Bx-PC3 [9]): ~3.9 fold | increase of sorafenib cytotoxicity in combination (Bx-PC3 [9]; sorafenib 1 µg/mL, verapamil/MK571 1 µg/mL or sesquiterpenes 10 µg/mL): ~10% | increase of sorafenib cytotoxicity in combination (Bx-PC3 [9]; sorafenib 10 µg/mL, verapamil/MK571 1 µg/mL): ~47% | wound area / cell migration after 72 h (Bx-PC3 cells; substance alone, sesquiterpenes 10 µg/mL, verapamil/MK571 1 µg/mL): almost complete closure of wound area | increase of wound area (Bx-PC3 cells; substance in combination with sorafenib 10 µg/mL, reference and time not stated): approximately 3.7 fold

CNC(=O)c1cc(Oc2ccc(NC(=O)Nc3ccc(Cl)c(C(F)(F)F)c3)cc2)ccn1 [Sorafenib, sorafenib tosylate]
lowering of MRP1 expression compared to control (immunofluorescence) (MRP1 [10]): 1.2 fold | increase of MDR1 gene expression with respect to control (MDR1): 3.6 fold | decrease of MRP2 gene expression (MRP2 [11]): ~2 fold | inhibition of cell viability (HepG2 [3]; HepG2, 10 µg/mL): approximately 10% | inhibition of cell viability (HepG2 [3]; HepG2, 500 µg/mL): 95% | IC50 higher with respect to Bx-PC3 cells (HepG2 [3]; HepG2 vs Bx-PC3): approximately 1.5 fold | higher cytotoxicity in normal H69 cells than in cancerous Mz-ChA-1 cholangiocytes (IC50 comparison) [4]: approximately 1.5 fold | CC50 [4]: 50.3 µg/mL | increase of STAT3 phosphorylation at tyrosine 705 (phospho(Tyr705)-STAT3): 4.6 fold | effect on Pgp expression (immunofluorescence) (Pgp): slight increase | IC50 (Mz-ChA-1 [5]; Mz-ChA-1): 76.1 µg/mL | inhibition of cell viability (Mz-ChA-1 [5]; Mz-ChA-1, 50 µg/mL): about 30% | inhibition of cell viability (Mz-ChA-1 [5]; Mz-ChA-1, 250 µg/mL): about 90% | IC50 higher with respect to Bx-PC3 cells (Mz-ChA-1 [5]; Mz-ChA-1 vs Bx-PC3): ~2.4 fold | inhibition of cell viability (Bx-PC3 [6]; 50 µg/mL): 70% | IC50 (Bx-PC3 [6]): 31 µg/mL | cell viability at the higher tested concentrations (Bx-PC3 [6]; concentrations higher than 50 µg/mL): almost completely inhibited | effect on MRP2 transporter expression (immunofluorescence) (MRP2 [8]): significantly lowered | decrease of MRP1 gene expression (MRP1 [12]): ~2 fold | change of wound area after 4 h (Bx-PC3 cells; sorafenib 10 µg/mL alone): slight reduction | increase of wound area at 72 h (Bx-PC3 cells; sorafenib 10 µg/mL alone): 1.2 fold
